Data from ChEMBL document CHEMBL5352401, “Novel cudraisoflavone J derivatives as potent neuroprotective agents for the treatment of Parkinson's disease via the activation of Nrf2/HO-1 signaling” (Eur J Med Chem, 2022).
pIC50: −log10 of the molar value. Calls of active or inactive are those of the source. The calls are words filed in the database; no cut-off is given here.

Assays:
PC-12 [1] = experiment: Cytotoxicity in rat PC-12 cells assessed as cell viability incubated for 24 hrs by MTT assay; assay type: functional, cell-based; settings: PC-12, 24 h
PC-12 [2] = experiment: Neuroprotective activity against 6-OHDA-induced cytotoxicity in rat PC-12 cells for 4 hrs followed by exposure to 6-OHDA measured after 24 hrs by MTT assay; assay type: functional, cell-based; settings: dose 0.1-30 µM, time 28.0 hrs
PC-12 [3] = experiment: Cytotoxicity in rat PC-12 cells assessed as cell viability measured at 30 uM for 24 hrs by MTT assay relative to control; assay type: functional; settings: read-out: Activity
PC-12 [4] = experiment: Neuroprotective activity against 6-OHDA-induced cytotoxicity in rat PC-12 cells at 10 to 30 uM for 4 hrs followed by exposure to 6-OHDA measured after 24 hrs by MTT assay; assay type: functional, cell-based; settings: dose 10-30 µM, time 28.0 hrs
[5] = Neurotoxicity in rotenone induced at rat PC-12 cells assessed as cell viability at 30 uM pretreated for 4 hrs followed by rotenone addition measured after 24 hrs by MTT assay (reference value: 53.4 +/- 2.6%); assay type: toxicity, cell-based; settings: time 28 hrs, read-out: Activity
[6] = Neurotoxicity in rotenone induced at rat PC-12 cells assessed as cell viability pretreated with compound for 4 hrs followed by rotenone addition measured after 24 hrs by MTT assay; assay type: toxicity, cell-based
PC-12 [7] = experiment: Cytotoxicity in rat PC-12 cells assessed as cell viability measured upto 30 uM for 24 hrs by MTT assay; assay type: functional, cell-based
Monoamine oxidase = biological target: T1, Monoamine oxidase (Mus musculus, UniProt Q8BW75+Q64133); experiment: Inhibition of mouse brain mitochondrial MAO using kynuramine as substrate incubated for 15 mins measured fluorometric analysis; assay type: mitochondria, Mitochondria
T1 sequence (Q8BW75 whole entry): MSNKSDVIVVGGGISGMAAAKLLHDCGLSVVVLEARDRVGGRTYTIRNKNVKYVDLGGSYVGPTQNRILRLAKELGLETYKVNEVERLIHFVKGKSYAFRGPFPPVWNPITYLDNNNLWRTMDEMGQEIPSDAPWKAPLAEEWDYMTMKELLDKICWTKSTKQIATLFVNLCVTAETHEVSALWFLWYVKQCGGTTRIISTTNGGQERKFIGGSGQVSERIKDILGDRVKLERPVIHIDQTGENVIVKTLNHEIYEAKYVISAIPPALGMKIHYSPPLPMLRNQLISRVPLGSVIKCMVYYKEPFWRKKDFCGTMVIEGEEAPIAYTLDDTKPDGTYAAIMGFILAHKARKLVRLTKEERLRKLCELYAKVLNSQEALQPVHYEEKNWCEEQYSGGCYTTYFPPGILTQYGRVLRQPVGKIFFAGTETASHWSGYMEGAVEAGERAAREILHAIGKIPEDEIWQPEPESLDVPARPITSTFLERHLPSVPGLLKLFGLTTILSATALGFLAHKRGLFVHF
T1 sequence (Q64133 whole entry): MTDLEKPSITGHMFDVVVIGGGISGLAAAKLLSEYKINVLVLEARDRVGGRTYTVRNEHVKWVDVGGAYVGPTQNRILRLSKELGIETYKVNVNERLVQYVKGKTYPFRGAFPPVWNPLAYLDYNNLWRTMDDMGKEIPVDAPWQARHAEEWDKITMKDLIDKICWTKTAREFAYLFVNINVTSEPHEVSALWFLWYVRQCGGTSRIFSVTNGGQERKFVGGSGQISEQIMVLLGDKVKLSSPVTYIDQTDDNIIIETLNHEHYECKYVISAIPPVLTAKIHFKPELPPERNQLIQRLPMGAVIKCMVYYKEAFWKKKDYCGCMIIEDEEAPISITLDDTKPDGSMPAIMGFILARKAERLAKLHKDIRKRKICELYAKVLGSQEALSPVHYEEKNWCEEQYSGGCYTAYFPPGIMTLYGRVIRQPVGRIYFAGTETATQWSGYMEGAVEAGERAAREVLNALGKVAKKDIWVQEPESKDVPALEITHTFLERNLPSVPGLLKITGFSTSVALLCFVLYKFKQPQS

PC-12 [8] = experiment: Cytotoxicity in rat PC-12 cells assessed as cell viability measured at 30 uM for 24 hrs by MTT assay; assay type: functional, cell-based
PC-12 [9] = experiment: Cytotoxicity in rat PC-12 cells assessed as cell viability measured at 10 uM for 24 hrs by MTT assay; assay type: functional, cell-based
PC-12 [10] = experiment: Neuroprotective activity against 6-OHDA-induced cytotoxicity in rat PC-12 cells at 30 uM for 4 hrs followed by exposure to 6-OHDA measured after 24 hrs by MTT assay; assay type: functional, cell-based; settings: time 28.0 hrs
PC-12 [11] = experiment: Neuroprotective activity against 6-OHDA-induced cytotoxicity in rat PC-12 cells at 10 uM for 4 hrs followed by exposure to 6-OHDA measured after 24 hrs by MTT assay; assay type: functional, cell-based; settings: time 28.0 hrs
PC-12 [12] = experiment: Cytotoxicity in rat PC-12 cells assessed as cell viability measured upto 30 uM for 24 hrs by MTT assay relative to control; assay type: functional; settings: up to 30 µM
PC-12 [13] = experiment: Cytotoxicity in rat PC-12 cells assessed as cell viability measured at 10 to 30 uM for 24 hrs by MTT assay; assay type: functional, cell-based; settings: dose 10-30 µM
PC-12 [14] = experiment: Neuroprotective activity against 6-OHDA-induced cytotoxicity in rat PC-12 cells at 0.1 uM for 4 hrs followed by exposure to 6-OHDA measured after 24 hrs by MTT assay; assay type: functional, cell-based; settings: time 28.0 hrs

With `COc1cccc(-c2coc3cc(O)c4c(c3c2=O)OC(C)(C)C(O)C4)c1` (stereo unspecified) the pIC50 (PC-12 [1]) was 5.10, the Activity (PC-12 [2]) was “Dose-Dependent Effect” and the viability at 30 µM (PC-12 [3]) was 86%. The Activity (PC-12 [4]) was “Active”, the viability at 30 µM [5] was 80.3% and the pIC50 [6] was 5.26. For the same molecule, the Activity (PC-12 [7]) was “inactive”.

In the case of `CC1(C)C=Cc2c(cc3occ(-c4ccc(O)cc4)c(=O)c3c2O)O1` [ALPINUMISOFLAVONE], the IC50 (Monoamine oxidase) was 25.8 µM and the Activity (PC-12 [8]) was “Active”.

With `CC1(C)Oc2c(c(O)cc3occ(-c4ccco4)c(=O)c23)CC1O` (stereo unspecified) the Activity (PC-12 [9]) was “Active”, the Activity (PC-12 [10]) was “inactive” and the Activity (PC-12 [11]) was “Active”.

With `CCOc1ccc(-c2coc3cc4c(c(O)c3c2=O)C=CC(C)(C)O4)cc1` the Activity (PC-12 [12]) was about 80%, the Activity (PC-12 [13]) was “inactive” and the Activity (PC-12 [4]) was “Active”. For the same molecule, the Activity (PC-12 [14]) was “Active”.
